Assay results: ChEMBL document CHEMBL6074673, “Discovery of UCB9386: A Potent, Selective, and Brain-Penetrant Nuak1 Inhibitor Suitable for In Vivo Pharmacological Studies” (J Med Chem, 2024)
Values after ≈ are worked out from the molar mass of the structure shown.

How the values were obtained:
[1] = Dissociation constant, pKa of compound; format: physicochemical
[2] = Metabolic stability in mouse liver microsomes assessed as intrinsic clearance; format: ADME, Microsome
physchem [3] = conditions: buffer, pH 7.4
Description: Thermodynamic solubility of compound at pH 7.4

in vitro [4] = conditions: human, Caco-2
Description: Apparent permeability in human Caco-2 cells

[5] = human, microsomes
in vivo = conditions: mouse, brain, 0.5 mg/kg
Description: Ratio of unbound drug concentration in brain to plasma of mouse at 0.5 mg/kg

physchem [6] = conditions: buffer, pH 7.4; remark: listed apart in the source
Description: Photostability of compound at pH 7.4 under ambient light assessed as compound remaining at 250 uM measured after 24 hrs by 2 LC-MS analysis

in vitro [7] = conditions: mouse, hepatocytes
Description: Metabolic stability in mouse hepatocytes assessed as intrinsic clearance measured per million cells

in vitro [8] = conditions: human, hepatocytes
Description: Metabolic stability in human hepatocytes assessed as intrinsic clearance measured per million cells

| Structure (SMILES) | pKa [1] | CLH [2] [mL/min/g] | solubility thermodynamic (physchem [3]) [µM] | Papp (in vitro [4]) [×10⁻⁶ cm/s] | CLH [5] [mL/min/g] | Kp uu (in vivo) | remaining at 24 h, 250 µM (physchem [6]) [%] | hepatocyte CLint (in vitro [7]) [µL/min/1e6 cells] | hepatocyte CLint (in vitro [8]) [µL/min/1e6 cells] |
| --- | --- | --- | --- | --- | --- | --- | --- | --- | --- |
| CN1C[C@H]2C[C@@H]1CN2c1nc2cnc(-c3cnc4cccnn34)cc2n(Cc2ccccc2)c1=O | 8.4 | 58 | 456 (≈ 212 µg/mL) | 12.5 | 83 | 0.5 | – | – | – |
| O=c1c(N2CC3CC(C2)N3)nc2cnc(-c3cnc4cccnn34)cc2n1Cc1ccccc1 | 8.7 | 10 | 2 (≈ 0.901 µg/mL) | 13.2 | 22 | 0.07 | – | – | – |
| CN1CCN(c2nc3cnc(-c4cnc5cccnn45)cc3n(Cc3ccccc3)c2=O)CC1 | 7.6 | 227 | < 1 | 23.6 | 73 | – | – | – | – |
| CC1Oc2ccc(-c3cnc4ccccn34)nc2N(Cc2ccccc2)C1=O (stereo not drawn) | – | – | – | – | – | – | 39 | – | – |
| C[C@H](c1ccccc1)n1c(=O)c(N2CC3CC(C2)N3)nc2cnc(-c3cnc4cccnn34)cc21 | – | – | 356 (≈ 165 µg/mL) | 8.3 | 21 | 0.026 | – | 6 | 9 |
| O=c1c(N2C[C@H]3C[C@@H]2CN3)nc2cnc(-c3cnc4cccnn34)cc2n1Cc1ccccc1 | 8.8 | 3 | – | 8.6 | 16 | – | – | – | – |
| O=c1c(N2CCNCC2)nc2cnc(-c3cnc4cccnn34)cc2n1Cc1ccccc1 | 8.5 | 32 | < 1 | 10.7 | 42 | – | – | – | – |

Continued, values first:

| pKa [1] | CLH [2] [mL/min/g] | solubility thermodynamic (physchem [3]) [µM] | Papp (in vitro [4]) [×10⁻⁶ cm/s] | CLH [5] [mL/min/g] | Kp uu (in vivo) | remaining at 24 h, 250 µM (physchem [6]) [%] | hepatocyte CLint (in vitro [7]) [µL/min/1e6 cells] | hepatocyte CLint (in vitro [8]) [µL/min/1e6 cells] | Structure (SMILES) |
| --- | --- | --- | --- | --- | --- | --- | --- | --- | --- |
| – | 52 | – | – | 29 | – | – | – | – | O=c1c(N2CCOCC2)nc2cnc(-c3cnc4cccnn34)cc2n1Cc1ccccc1 |
| – | 11 | – | 13.9 | 4 | – | – | – | – | O=c1c(C(F)F)nc2cnc(-c3cnc4cccnn34)cc2n1Cc1ccccc1 |
| – | 226 | – | – | 63 | – | – | – | – | O=c1c(N2CCC2)nc2cnc(-c3cnc4cccnn34)cc2n1Cc1ccccc1 |
| – | – | – | 24.4 | 34 | – | > 97 | – | – | O=c1cnc2cnc(-c3cnc4cccnn34)cc2n1Cc1ccccc1 |
